Columns and labels:
Assay type in all cases: in vivo
Ctenocephalides felis [1] = assay: Flea control on dogs fed medicated diet, Table IV; set-up: key: 100% Control; PC: Partial Control; NC: No Control
Method: Five groups of two mongrel dogs each were fed a daily dose of 0, 6.25, 25, 100 or 400 mg. O,O,O',O'-tetramethyl O,O'-thiodi-p-phenylene phosphorothioate/kg. body weight in Agway Big Red Dog Meal. Dogs eating less than 75% of the food were given a corrected dose by gelatin capsule to equal 100%. Medication began 1 day after infesting each dog with 100 adult Ctenocephalides felis and 2 days before infesting each dog with 10 Dermacentor variabiles and 10 Rhipicephalus sanguineus adults.

Ctenocephalides felis [2] = assay: Flea control on dogs given oral doses (gelatin capsules), Table III; set-up: key to Flea Control: 100% Control; PC: Partial Control; NC: No Control
Method: Five groups of two mongrel dogs each were dosed daily with 0, 0.78, 3.1, 12.5 or 50 mg. O,O,O',O'-tetramethyl O,O'-thiodi-p-phenylene phosphorothioate/kg. body weight in gelatin capsules for 10 days. Medication began three days after infestations with 100 adult Ctenocephalides felis. […] Purina High Protein Dog Meal was fed once daily for the duration of the experiment. Water was provided ad libitum. The following table summarizes the results of the test.

Ctenocephalides felis [3] = assay: 2% pressurized spray for control of fleas on dogs
Method: An experiment was carried out on dogs obtained from a licensed laboratory animal dealer. These dogs were mixed breeds and of different size and sex. The dogs were individually housed in cages with absorbent paper placed under each in order to count dead fleas. A mixture containing 2% O,O,O',O'-tetramethyl O,O'-thiodi-p-phenylene phosphorothioate (active ingredient) and having the following formula was used as a pressurized spray: […]
Two tests were carried out, one with 22 dogs and the other with 21 dogs, each test using 5 control dogs. Each dog was treated with approximately 60 mg./kg. of O,O,O',O'-tetramethyl O,O'-thiodi-p-phenylene phosphorothioate using the formulation described above. Each dog was infested with 100 1-day old adult C. felis 72 hours prior to spray treatment and reinfested on a weekly basis for 7 weeks, beginning 7 days after treatment. The five control dogs were treated with a blank spray containing everything except the active ingredient. After treatment or each reinfestation, daily examinations of each dog were made up to 7 days or until no live fleas could be found. Once a live flea was found, the dog was considered still infested even though the flea population may have been low. The number of dead fleas recovered from papers under the cages are expressed as average dead on treated/average dead on control are summarized in Table XVII.

[4] = test system: Boophilus microplus larvae; assay: Control of acarina larvae in pipettes (simulated spray); conditions: Rhipicephalus microplus, 48 hours, read-out: Activity (larval mortality)
Method: Boophilus is a one-host tick which uses only one host animal during its three parasitic life stages (larvae, nymph, adult). […] Twenty larvae are enclosed in a pipette sealed at one end with a gauze material, and the "solution" containing the test compound is then drawn through the pipette with a vacuum hose, simulating a spray system. The open end of the pipette is sealed with plastiline and the ticks held for 48 hours at room temperature and 80+% humidity. Activity is based on mortality. The test compound was 100%, 100% and 0% active at 0.01%, 0.001% and 0.0001% (w/w), respectively.

SMILES: COP(=S)(OC)Oc1ccc(Sc2ccc(OP(=S)(OC)OC)cc2)cc1 [O,O,O',O'-tetramethyl O,O'-thiodi-p-phenylene phosphorothioate]
- Flea Control (Ctenocephalides felis [1]; 6.25 mg/kg in feed, 1 dog, after 3 days): complete flea control
- Flea Control (Ctenocephalides felis [1]; 6.25 mg/kg in feed, other dog, after 4 days): complete flea control
- Flea Control (Ctenocephalides felis [1]; 400, 100 or 25 mg/kg in feed, all dogs, after 48 hours): Complete flea control
- Flea Control (Ctenocephalides felis [1]; in feed 6.25 mg/kg daily, day 2): NC and PC
- Flea Control (Ctenocephalides felis [1]; in feed 6.25 mg/kg daily, day 4): 100 (100% Control)
- Flea Control (Ctenocephalides felis [1]; in feed 25 mg/kg daily, day 2): 100 (100% Control)
- Flea Control (Ctenocephalides felis [1]; in feed 100 mg/kg daily, day 2): 100 (100% Control)
- Flea Control (Ctenocephalides felis [1]; in feed 400 mg/kg daily, day 2): 100 (100% Control)
- flea activity (Ctenocephalides felis [2]; oral 0.78 mg/kg): no flea activity was observed
- Flea Control (Ctenocephalides felis [2]; oral 3.1 mg/kg daily, day 0): NC
- Flea Control (Ctenocephalides felis [2]; oral 3.1 mg/kg daily, day 1): NC
- Flea Control (Ctenocephalides felis [2]; oral 3.1 mg/kg daily, day 2): NC
- Flea Control (Ctenocephalides felis [2]; oral 3.1 mg/kg daily, day 3): PC
- Flea Control (Ctenocephalides felis [2]; oral 3.1 mg/kg daily, day 4): PC
- Flea Control (Ctenocephalides felis [2]; oral 3.1 mg/kg daily, day 7): 100 (100% Control)
- Flea Control (Ctenocephalides felis [2]; oral 3.1 mg/kg, both dogs, after 7 days): complete control
- Flea Control (Ctenocephalides felis [2]; oral 12.5 mg/kg daily, day 0): NC
- Flea Control (Ctenocephalides felis [2]; oral 12.5 mg/kg daily, day 2): PC
- Flea Control (Ctenocephalides felis [2]; oral 12.5 mg/kg daily, day 3): PC
- Flea Control (Ctenocephalides felis [2]; oral 12.5 mg/kg daily, day 4): PC
- Flea Control (Ctenocephalides felis [2]; oral 12.5 mg/kg daily, day 7): 100 (100% Control)
- Flea Control (Ctenocephalides felis [2]; oral 12.5 mg/kg, another dog, after 7 days): complete control
- Flea Control (Ctenocephalides felis [2]; oral 12.5 mg/kg, one dog, after 24 hours): complete control
- Flea Control (Ctenocephalides felis [2]; oral 50 mg/kg daily, day 0): NC
- Flea Control (Ctenocephalides felis [2]; oral 50 mg/kg daily, day 1): 100 (100% Control)
- Flea Control (Ctenocephalides felis [2]; oral 50 mg/kg, after 24 hours): complete flea control
- Flea Control (Ctenocephalides felis [2]; oral .78 mg/kg daily, day 0): NC
- Flea Control (Ctenocephalides felis [2]; oral .78 mg/kg daily, day 1): NC
- Flea Control (Ctenocephalides felis [2]; oral .78 mg/kg daily, day 2): NC
- Flea Control (Ctenocephalides felis [2]; oral .78 mg/kg daily, day 3): NC
- Flea Control (Ctenocephalides felis [2]; oral .78 mg/kg daily, day 4): NC
- Flea Control (Ctenocephalides felis [2]; oral .78 mg/kg daily, day 7): NC
- Flea Control (Ctenocephalides felis [2]; oral .78 mg/kg daily, day 8): NC
- Percent of Dogs with Control (Ctenocephalides felis [3]; 60 mg/kg 2% pressurized spray, week 0): 100%
- Percent of Dogs with Control (Ctenocephalides felis [3]; 60 mg/kg 2% pressurized spray, week 1): 100%
- Percent of Dogs with Control (Ctenocephalides felis [3]; 60 mg/kg 2% pressurized spray, week 2): 100%
- Percent of Dogs with Control (Ctenocephalides felis [3]; 60 mg/kg 2% pressurized spray, week 3): 100%
- Percent of Dogs with Control (Ctenocephalides felis [3]; 60 mg/kg 2% pressurized spray, week 4): 97.6%
- Percent of Dogs with Control (Ctenocephalides felis [3]; 60 mg/kg 2% pressurized spray, week 5): 95.2%
- Percent of Dogs with Control (Ctenocephalides felis [3]; 60 mg/kg 2% pressurized spray, week 6): 82.9%
- Percent of Dogs with Control (Ctenocephalides felis [3]; 60 mg/kg 2% pressurized spray, week 7): 58.5%
- Avg. Dead on Treated, Average on Two Tests (Ctenocephalides felis [3]; 60 mg/kg, week 0, control 2.0): 36.3
- Avg. Dead on Treated, Average on Two Tests (Ctenocephalides felis [3]; 60 mg/kg, week 1, control 5.6): 41.4
- Avg. Dead on Treated, Average on Two Tests (Ctenocephalides felis [3]; 60 mg/kg, week 2, control 3.0): 41.2
- Avg. Dead on Treated, Average on Two Tests (Ctenocephalides felis [3]; 60 mg/kg, week 3, control 4.8): 41.2
- Avg. Dead on Treated, Average on Two Tests (Ctenocephalides felis [3]; 60 mg/kg, week 4, control 5.2): 40.7
- Avg. Dead on Treated, Average on Two Tests (Ctenocephalides felis [3]; 60 mg/kg, week 5, control 5.6): 36.0
- Avg. Dead on Treated, Average on Two Tests (Ctenocephalides felis [3]; 60 mg/kg, week 6, control 4.8): 30.0
- Avg. Dead on Treated, Average on Two Tests (Ctenocephalides felis [3]; 60 mg/kg, week 7, control 4.8): 26.3
- Number of Dogs on Which Fleas were Controlled (Ctenocephalides felis [3]; Combination of Test 1 & 2, 60 mg/kg, week 0, of 43): 43 dogs
- Number of Dogs on Which Fleas were Controlled (Ctenocephalides felis [3]; Combination of Test 1 & 2, 60 mg/kg, week 1, of 43): 43 dogs
- Number of Dogs on Which Fleas were Controlled (Ctenocephalides felis [3]; Combination of Test 1 & 2, 60 mg/kg, week 2, of 43): 43 dogs
- Number of Dogs on Which Fleas were Controlled (Ctenocephalides felis [3]; Combination of Test 1 & 2, 60 mg/kg, week 3, of 42): 42 dogs
- Number of Dogs on Which Fleas were Controlled (Ctenocephalides felis [3]; Combination of Test 1 & 2, 60 mg/kg, week 4, of 42): 41 dogs
- Number of Dogs on Which Fleas were Controlled (Ctenocephalides felis [3]; Combination of Test 1 & 2, 60 mg/kg, week 5, of 42): 40 dogs
- Number of Dogs on Which Fleas were Controlled (Ctenocephalides felis [3]; Combination of Test 1 & 2, 60 mg/kg, week 6, of 41): 34 dogs
- Number of Dogs on Which Fleas were Controlled (Ctenocephalides felis [3]; Combination of Test 1 & 2, 60 mg/kg, week 7, of 41): 24 dogs
- Number of Dogs on Which Fleas were Controlled (Ctenocephalides felis [3]; Experiment 1, 60 mg/kg 2% pressurized spray, week 0, of 22): 22 dogs
- Number of Dogs on Which Fleas were Controlled (Ctenocephalides felis [3]; Experiment 1, 60 mg/kg 2% pressurized spray, week 1, of 22): 22 dogs
- Number of Dogs on Which Fleas were Controlled (Ctenocephalides felis [3]; Experiment 1, 60 mg/kg 2% pressurized spray, week 2, of 22): 22 dogs
- Number of Dogs on Which Fleas were Controlled (Ctenocephalides felis [3]; Experiment 1, 60 mg/kg 2% pressurized spray, week 3, of 22): 22 dogs
- Number of Dogs on Which Fleas were Controlled (Ctenocephalides felis [3]; Experiment 1, 60 mg/kg 2% pressurized spray, week 4, of 22): 22 dogs
- Number of Dogs on Which Fleas were Controlled (Ctenocephalides felis [3]; Experiment 1, 60 mg/kg 2% pressurized spray, week 5, of 22): 22 dogs
- Number of Dogs on Which Fleas were Controlled (Ctenocephalides felis [3]; Experiment 1, 60 mg/kg 2% pressurized spray, week 6, of 22**): 20 dogs
- Number of Dogs on Which Fleas were Controlled (Ctenocephalides felis [3]; Experiment 1, 60 mg/kg 2% pressurized spray, week 7, of 21): 12 dogs
- Number of Dogs on Which Fleas were Controlled (Ctenocephalides felis [3]; Experiment 2, 60 mg/kg 2% pressurized spray, week 0, of 21): 21 dogs
- Number of Dogs on Which Fleas were Controlled (Ctenocephalides felis [3]; Experiment 2, 60 mg/kg 2% pressurized spray, week 1, of 21): 21 dogs
- Number of Dogs on Which Fleas were Controlled (Ctenocephalides felis [3]; Experiment 2, 60 mg/kg 2% pressurized spray, week 2, of 21): 21 dogs
- Number of Dogs on Which Fleas were Controlled (Ctenocephalides felis [3]; Experiment 2, 60 mg/kg 2% pressurized spray, week 3, of 20**): 20 dogs
- Number of Dogs on Which Fleas were Controlled (Ctenocephalides felis [3]; Experiment 2, 60 mg/kg 2% pressurized spray, week 4, of 20): 19 dogs
- Number of Dogs on Which Fleas were Controlled (Ctenocephalides felis [3]; Experiment 2, 60 mg/kg 2% pressurized spray, week 5, of 20): 18 dogs
- Number of Dogs on Which Fleas were Controlled (Ctenocephalides felis [3]; Experiment 2, 60 mg/kg 2% pressurized spray, week 6, of 20): 14 dogs
- Number of Dogs on Which Fleas were Controlled (Ctenocephalides felis [3]; Experiment 2, 60 mg/kg 2% pressurized spray, week 7, of 20): 12 dogs
- Avg. Dead on Treated (Ctenocephalides felis [3]; Test 1, 60 mg/kg, week 0, control 38): 34.6
- Avg. Dead on Treated (Ctenocephalides felis [3]; Test 1, 60 mg/kg, week 1, control 10.4): 38.2
- Avg. Dead on Treated (Ctenocephalides felis [3]; Test 1, 60 mg/kg, week 2, control 3.4): 42.1
- Avg. Dead on Treated (Ctenocephalides felis [3]; Test 1, 60 mg/kg, week 3, control 4.6): 41.6
- Avg. Dead on Treated (Ctenocephalides felis [3]; Test 1, 60 mg/kg, week 4, control 5.4): 37.8
- Avg. Dead on Treated (Ctenocephalides felis [3]; Test 1, 60 mg/kg, week 5, control 5.0): 34.1
- Avg. Dead on Treated (Ctenocephalides felis [3]; Test 1, 60 mg/kg, week 6, control 6.2): 34.1
- Avg. Dead on Treated (Ctenocephalides felis [3]; Test 1, 60 mg/kg, week 7, control 6.6): 30.8
- Avg. Dead on Treated (Ctenocephalides felis [3]; Test 2, 60 mg/kg, week 0, control .2): 38.0
- Avg. Dead on Treated (Ctenocephalides felis [3]; Test 2, 60 mg/kg, week 1, control .8): 44.5
- Avg. Dead on Treated (Ctenocephalides felis [3]; Test 2, 60 mg/kg, week 2, control 2.6): 40.3
- Avg. Dead on Treated (Ctenocephalides felis [3]; Test 2, 60 mg/kg, week 3, control 5.0): 40.7
- Avg. Dead on Treated (Ctenocephalides felis [3]; Test 2, 60 mg/kg, week 4, control 5.0): 43.6
- Avg. Dead on Treated (Ctenocephalides felis [3]; Test 2, 60 mg/kg, week 5, control 6.2): 37.9
- Avg. Dead on Treated (Ctenocephalides felis [3]; Test 2, 60 mg/kg, week 6, control 3.5): 26.0
- Avg. Dead on Treated (Ctenocephalides felis [3]; Test 2, 60 mg/kg, week 7, control 3.0): 21.8
- mortality at 0.0001 % ([4]; 0.0001% (w/w)): 0%
- mortality at 0.001 % ([4]; 0.001% (w/w)): 100%
- mortality at 0.01 % ([4]; 0.01% (w/w)): 100%

Source: patent US3968207A, “Method of controlling fleas and ticks on cats and dogs” (priority 1975, dated 1976)
